Assay results from patent US20260028326A1, “COMPOUND BASED ON ISOINDOLINE-SUBSTITUTED GLUTARIMIDE BACKBONE AND USE THEREOF” (GLUETACS THERAPEUTICS (SHANGHAI) CO., LTD., priority 2022, published 2026).
pIC50: −log10 of the molar value.

Tests used:
IKZF3 protein = IKZF3 protein (Homo sapiens (Human), UniProt Q96SW2+Q9UKT9); assay: Western-blot assay of substrate protein degradation in hPBMC, IKZF3; assay type: cell-based; details: for residual substrate protein level, IKZF3: hPBMC cells, compound 500 nM, 24 hours, Western blot
Chain of IKZF3 protein (Q9UKT9 whole entry): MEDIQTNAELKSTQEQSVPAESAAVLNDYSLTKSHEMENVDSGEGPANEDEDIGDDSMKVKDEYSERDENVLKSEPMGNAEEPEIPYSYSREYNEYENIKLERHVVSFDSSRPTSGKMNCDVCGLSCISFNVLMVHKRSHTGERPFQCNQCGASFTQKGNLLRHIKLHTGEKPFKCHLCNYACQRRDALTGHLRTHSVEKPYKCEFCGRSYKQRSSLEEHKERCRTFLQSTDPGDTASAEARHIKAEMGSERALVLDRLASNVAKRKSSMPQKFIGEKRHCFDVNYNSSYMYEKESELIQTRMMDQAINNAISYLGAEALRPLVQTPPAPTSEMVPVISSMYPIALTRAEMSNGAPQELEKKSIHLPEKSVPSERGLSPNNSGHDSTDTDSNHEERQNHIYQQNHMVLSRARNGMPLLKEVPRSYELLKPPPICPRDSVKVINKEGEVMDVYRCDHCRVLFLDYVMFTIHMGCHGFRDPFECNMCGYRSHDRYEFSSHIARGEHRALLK
Chain of IKZF3 protein (Q96SW2 whole entry): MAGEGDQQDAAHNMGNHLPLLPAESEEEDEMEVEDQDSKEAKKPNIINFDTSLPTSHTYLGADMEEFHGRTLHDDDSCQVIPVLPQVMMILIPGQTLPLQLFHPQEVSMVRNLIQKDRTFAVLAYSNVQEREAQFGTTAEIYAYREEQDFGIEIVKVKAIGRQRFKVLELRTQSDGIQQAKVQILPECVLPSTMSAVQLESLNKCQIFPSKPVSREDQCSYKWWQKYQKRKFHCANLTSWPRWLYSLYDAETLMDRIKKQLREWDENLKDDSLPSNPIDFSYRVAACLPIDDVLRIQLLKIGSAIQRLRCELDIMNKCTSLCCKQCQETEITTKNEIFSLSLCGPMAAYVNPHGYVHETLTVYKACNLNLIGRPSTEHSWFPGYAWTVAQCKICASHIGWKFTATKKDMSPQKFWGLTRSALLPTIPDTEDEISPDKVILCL
Chain of IKZF3 protein (Q16531 whole entry partner): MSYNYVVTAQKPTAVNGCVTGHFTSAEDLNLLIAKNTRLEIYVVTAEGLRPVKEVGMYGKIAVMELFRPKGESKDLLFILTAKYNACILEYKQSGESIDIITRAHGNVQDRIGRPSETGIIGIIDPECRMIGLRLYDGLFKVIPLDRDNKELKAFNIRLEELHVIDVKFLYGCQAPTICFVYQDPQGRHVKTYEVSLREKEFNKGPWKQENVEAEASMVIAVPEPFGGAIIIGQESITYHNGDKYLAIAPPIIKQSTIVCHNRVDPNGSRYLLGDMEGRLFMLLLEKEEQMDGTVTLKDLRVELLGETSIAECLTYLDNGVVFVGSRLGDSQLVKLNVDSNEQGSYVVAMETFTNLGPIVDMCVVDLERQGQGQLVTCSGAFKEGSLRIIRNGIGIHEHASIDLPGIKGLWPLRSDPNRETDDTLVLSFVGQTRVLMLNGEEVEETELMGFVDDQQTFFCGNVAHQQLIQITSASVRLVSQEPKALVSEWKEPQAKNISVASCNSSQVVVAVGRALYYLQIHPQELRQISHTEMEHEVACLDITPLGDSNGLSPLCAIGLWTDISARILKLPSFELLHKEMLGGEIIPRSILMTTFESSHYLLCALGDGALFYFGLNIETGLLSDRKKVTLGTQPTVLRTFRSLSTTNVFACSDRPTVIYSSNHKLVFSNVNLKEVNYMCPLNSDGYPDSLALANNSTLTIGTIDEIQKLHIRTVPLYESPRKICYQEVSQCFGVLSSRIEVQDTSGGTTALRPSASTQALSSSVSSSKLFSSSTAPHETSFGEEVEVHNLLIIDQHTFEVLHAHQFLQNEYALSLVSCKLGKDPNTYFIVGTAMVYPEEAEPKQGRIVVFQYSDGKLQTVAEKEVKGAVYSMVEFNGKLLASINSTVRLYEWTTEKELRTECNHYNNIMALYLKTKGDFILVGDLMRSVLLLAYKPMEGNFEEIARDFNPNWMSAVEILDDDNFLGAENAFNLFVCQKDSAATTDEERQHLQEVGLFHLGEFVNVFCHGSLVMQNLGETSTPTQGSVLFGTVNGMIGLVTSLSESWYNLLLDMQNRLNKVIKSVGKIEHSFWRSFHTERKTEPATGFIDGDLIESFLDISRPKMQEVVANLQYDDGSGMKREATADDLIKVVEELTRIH

CCRF-CEM cells = assay: Tumor cell proliferation IC50 (CCK-8), CCRF-CEM; details: Homo sapiens, 96 h, read-out: IC50 for inhibiting the proliferation of tumor cells, CCRF-CEM;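 note: cell viability measured with CCK-8 reagent after compound treatment, IC50 taken from plotted growth inhibition curves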
MDA-MB-231 cells = assay: Tumor cell proliferation IC50 (CCK-8), MDA-MB-231; details: Homo sapiens, MDA-MB-231, 96 h, read-out: IC50 for inhibiting the proliferation of tumor cells, MDA-MB-231
Method: (§1) Prior to experimentation, all cells used were correctly identified by STR profiling, and tested negative for mycoplasma through routine screenings.
(§2) After the cells were treated with the compounds of the present disclosure for a period of time, the cell viability detection reagent was added to the culture medium for cell viability assessment according to the instructions provided with the CCK-8 kit. […] The growth inhibition of the compounds of the present disclosure on cells was plotted by Prism Graphpad software, and the IC50 values of the compounds of the present disclosure were calculated therefrom.

Mino cells = assay: Tumor cell proliferation IC50 (CCK-8), Mino; details: Homo sapiens, 72 h, read-out: IC50 for inhibiting the proliferation of tumor cells, Mino;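 note: cell viability assessed with CCK-8 reagent after compound exposure, IC50 derived from plotted growth inhibition curves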
TMD8 cells = assay: Tumor cell proliferation IC50 (CCK-8), TMD8; details: Homo sapiens, TMD8, 72 h, read-out: IC50 for inhibiting the proliferation of tumor cells, TMD8
Method: (§3) The tumor cells used herein were cultured in a cell culture medium listed in table A at 37° C. in an incubator with 5% CO2.
as §2

SU-DHL-6 cells = assay: Tumor cell proliferation IC50 (CCK-8), SU-DHL-6; details: Homo sapiens, SU-DHL-6, 72 h, read-out: IC50 for inhibiting the proliferation of tumor cells, SU-DHL-6
Method: as §1, §2

MM.1S cells = assay: Tumor cell proliferation IC50 (CCK-8), MM.1S; details: Homo sapiens, MM1.S, 72 h, read-out: IC50 for inhibiting the proliferation of tumor cells, MM.1S;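 note: viability of cultured cells read by CCK-8 reagent after compound exposure, growth inhibition curves fitted to derive IC50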
Method: as §3, §2

Ramos cells = assay: Tumor cell proliferation IC50 (CCK-8), Ramos; details: Homo sapiens, 72 h, read-out: IC50 for inhibiting the proliferation of tumor cells, Ramos
Method: as §3, §2

MM.1R cells = assay: Tumor cell proliferation IC50 (CCK-8), MM.1R; details: Homo sapiens, 72 h, read-out: IC50 for inhibiting the proliferation of tumor cells, MM.1R
Method: as §3, §2

[1] = Pharmacokinetic study, oral administration, mouse plasma; assay type: in vivo, mice; details: p.o. 30 mg/kg
Method: The experimental animals used can be those commonly used in pharmacokinetic experiments, e.g., adult and healthy rodents (e.g., mice, rats (such as Sprague-Dawley (SD) rats), guinea pigs) or non-rodents (rabbits, dogs, and monkeys). In the present disclosure, mice were used as the experimental animals.
The experimental animals were divided into two groups: a control group (for collecting blank plasma) and an orally administered group (dosed at 10 mg/kg or 30 mg/kg). Blood samples were collected at predetermined sampling time points after administration, such as 0.25 h, 0.5 h, 1 h, 2 h, 4 h, 8 h, and 24 h post-dosing. Blank plasma was collected from the control group.
Plasma samples were preprocessed before analysis: 10 μL of 50% acetonitrile and 200 μL of internal standard solution (containing 50 ng/mL dexamethasone in acetonitrile) were added to 10 μL of plasma samples. For the blank control group, the same volume of acetonitrile was added instead of the internal standard. The processed samples were vortexed, centrifuged, and the supernatant was taken for LC-MS/MS injection analysis.
After preparing standard curves and quality control (QC) samples, the concentrations of the compounds in the plasma samples were determined by LC-MS/MS analysis. Based on the plasma concentration data obtained from LC-MS/MS analysis, the pharmacokinetic parameters of the test compounds were calculated using the non-compartmental model in the pharmacokinetic calculation software WinNonlin v8.1.

SU-DHL-4 cells = assay: Tumor cell proliferation IC50 (CCK-8), SU-DHL-4; details: Homo sapiens, SU-DHL-4, 72 h, read-out: IC50 for inhibiting the proliferation of tumor cells, SU-DHL-4
Method: as §1, §2

IKZF1 protein = IKZF1 protein (Homo sapiens (Human), UniProt Q13422+Q96SW2); assay: Western-blot assay of substrate protein degradation in hPBMC, IKZF1; assay type: cell-based; details: for residual substrate protein level, IKZF1: hPBMC cells, compound 500 nM, 24 hours, Western blot
Chain of IKZF1 protein (Q13422 whole entry): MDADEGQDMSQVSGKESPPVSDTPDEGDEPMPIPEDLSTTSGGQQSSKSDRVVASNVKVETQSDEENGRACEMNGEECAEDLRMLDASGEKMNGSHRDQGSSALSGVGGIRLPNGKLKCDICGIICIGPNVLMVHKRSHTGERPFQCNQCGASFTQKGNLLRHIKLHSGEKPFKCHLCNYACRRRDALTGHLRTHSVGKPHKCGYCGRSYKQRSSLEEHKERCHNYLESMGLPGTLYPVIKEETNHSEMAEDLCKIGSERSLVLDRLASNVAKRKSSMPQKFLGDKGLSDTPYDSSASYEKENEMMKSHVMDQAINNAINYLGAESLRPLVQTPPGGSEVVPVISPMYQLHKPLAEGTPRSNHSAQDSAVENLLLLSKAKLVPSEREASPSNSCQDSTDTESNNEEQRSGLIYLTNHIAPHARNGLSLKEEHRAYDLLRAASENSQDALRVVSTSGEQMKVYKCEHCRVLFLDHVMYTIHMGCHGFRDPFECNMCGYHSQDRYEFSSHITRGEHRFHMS
Chain of IKZF1 protein (Q96SW2 whole entry): as the sequence (Q96SW2 whole entry) above
Chain of IKZF1 protein (Q16531 whole entry partner): as the sequence (Q16531 whole entry partner) above

Kasumi-1 cells = assay: Tumor cell proliferation IC50 (CCK-8), Kasumi-1; details: Homo sapiens, Kasumi 1, 72 h, read-out: IC50 for inhibiting the proliferation of tumor cells, Kasumi-1
Method: as §3, §2

SW620 cells = assay: Tumor cell proliferation IC50 (CCK-8), SW620; details: Homo sapiens, SW-620, 96 h, read-out: IC50 for inhibiting the proliferation of tumor cells, SW620
Method: as §3, §2

[2] = biological target: human Cereblon WT GST-tagged protein (Homo sapiens (Human), UniProt Q96SW2); assay: CRBN-binding affinity, HTRF (CEREBLON BINDING kit)
Chain of human Cereblon WT GST-tagged protein (Q96SW2 whole entry): as the sequence (Q96SW2 whole entry) above
Outline: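 GST-tagged human WT Cereblon incubated with compound, then Thalidomide-Re tracer and anti-GST Eu antibody added. Displacement read by HTRF, reported as CRBN binding inhibition rate against blank control wells without protein.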

GSPT1 protein = GSPT1 protein (Homo sapiens (Human), UniProt P15170+Q96SW2); assay: Western-blot assay of substrate protein degradation in hPBMC, GSPT1; assay type: cell-based; details: for residual substrate protein level, GSPT1: hPBMC cells, compound 500 nM, 24 hours, Western blot
Chain of GSPT1 protein (P15170 whole entry): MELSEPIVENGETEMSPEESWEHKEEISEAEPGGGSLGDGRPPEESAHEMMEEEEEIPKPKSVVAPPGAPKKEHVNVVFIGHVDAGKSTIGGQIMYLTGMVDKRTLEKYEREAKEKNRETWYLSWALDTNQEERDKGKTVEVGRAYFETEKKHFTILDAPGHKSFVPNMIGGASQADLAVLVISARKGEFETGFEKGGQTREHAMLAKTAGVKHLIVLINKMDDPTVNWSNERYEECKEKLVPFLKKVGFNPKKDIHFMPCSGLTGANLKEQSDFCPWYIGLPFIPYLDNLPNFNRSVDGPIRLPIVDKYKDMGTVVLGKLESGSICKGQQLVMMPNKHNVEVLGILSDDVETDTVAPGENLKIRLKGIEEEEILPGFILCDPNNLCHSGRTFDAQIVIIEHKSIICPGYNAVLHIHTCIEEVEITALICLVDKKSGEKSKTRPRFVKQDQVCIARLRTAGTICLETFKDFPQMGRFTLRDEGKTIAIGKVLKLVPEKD
Chain of GSPT1 protein (Q96SW2 whole entry): as the sequence (Q96SW2 whole entry) above
Chain of GSPT1 protein (Q16531 whole entry partner): as the sequence (Q16531 whole entry partner) above

Daudi cells = assay: Tumor cell proliferation IC50 (CCK-8), Daudi; details: Homo sapiens, read-out: IC50 for inhibiting the proliferation of tumor cells, Daudi;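 note: cell viability read with CCK-8 reagent after compound exposure of Daudi cells, IC50 derived from plotted growth inhibition curves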
Method: as §3, §2

MV-4-11 cells = assay: Tumor cell proliferation IC50 (CCK-8), MV-4-11; details: Homo sapiens, MV4-11, 96 h, read-out: IC50 for inhibiting the proliferation of tumor cells, MV-4-11
Method: as §3, §2

Row | pIC50 (CCRF-CEM cells) | pIC50 (MDA-MB-231 cells) | pIC50 (Mino cells) | pIC50 (TMD8 cells) | pIC50 (SU-DHL-6 cells) | pIC50 (MM.1S cells) | pIC50 (Ramos cells) | pIC50 (MM.1R cells) | AUC(0-t) [1] [ng·h/mL] | pIC50 (SU-DHL-4 cells) | pIC50 (Kasumi-1 cells) | pIC50 (SW620 cells) | pIC50 [2] | SMILES | residual substrate protein level, IKZF3 (IKZF3 protein) | residual substrate protein level, IKZF1 (IKZF1 protein) | residual substrate protein level, GSPT1 (GSPT1 protein) | further results
1 | > 8.30 | > 8.30 | – | 7.30 to 8.00 | 5.30 to 6.00 | > 8.30 | 7.30 to 8.00 | 8.00 to 8.30 | > 500 | 6.30 to 7.00 | > 8.30 | – | 5.74 | CC1(C)CCC(CN2CCN(Cc3cc4c(cc3F)C(=O)N(C3CCC(=O)NC3=O)C4)CC2)=C(c2ccc(Cl)cc2)C1 (centres unmarked) [GT-03578, 3-(5-((4-((4′-chloro-5,5-dimethyl-3,4,5,6-tetrahydro-[1,1′-biphenyl]-2-yl)methyl)piperazin-1-yl)methyl)-6-fluoro-1-oxoisoindolin-2-yl)piperidine-2,6-dione] | A (A represents a residual substrate protein level of <50%) | A (A represents a residual substrate protein level of <50%) | A (A represents a residual substrate protein level of <50%) | –
2 | – | – | 8.00 to 8.30 | – | – | – | – | – | > 500 | 6.30 to 7.00 | – | > 8.30 | 6.27 | O=C1CCC(N2Cc3c(ccc(CN4CCN(Cc5ccccc5-c5ccc(Cl)cc5)CC4)c3F)C2=O)C(=O)N1 (centres unmarked) [GT-03694, 3-(5-((4-((4′-chloro-[1,1′-biphenyl]-2-yl)methyl)piperazin-1-yl)methyl)-4-fluoro-1-oxoisoindolin-2-yl)piperidine-2,6-dione] | A (A represents a residual substrate protein level of <50%) | A (A represents a residual substrate protein level of <50%) | A (A represents a residual substrate protein level of <50%) | –
3 | – | – | 8.00 to 8.30 | – | – | – | – | – | > 500 | 7.00 to 7.30 | – | 8.00 to 8.30 | 5.93 | O=C1CCC(N2Cc3cc(CN4CCN(Cc5ccccc5-c5ccc(Cl)cc5)CC4)c(F)cc3C2=O)C(=O)N1 (centres unmarked) [GT-03695, 3-(5-((4-((4′-chloro-[1,1′-biphenyl]-2-yl)methyl)piperazin-1-yl)methyl)-6-fluoro-1-oxoisoindolin-2-yl)piperidine-2,6-dione] | A (A represents a residual substrate protein level of <50%) | A (A represents a residual substrate protein level of <50%) | A (A represents a residual substrate protein level of <50%) | –
4 | < 5.00 | < 5.00 | 5.30 to 6.00 | 6.00 to 6.30 | < 5.00 | 6.30 to 7.00 | 5.30 to 6.00 | < 5.00 | – | < 5.00 | < 5.00 | < 5.00 | – | Nc1cccc2c1C(=O)N(C1CCC(=O)NC1=O)C2=O (centres unmarked) [pomalidomide, reference compound] | – | – | – | degradation of IKZF3 protein (Western blot, FIG. 1) (IKZF3 protein; hPBMC, 24 h, 50 nM): cannot degrade; pIC50 (Daudi cells): 5.00 to 5.30; pIC50 (MV-4-11 cells): < 5.00; degradation of IKZF1 protein (Western blot, FIG. 1) (IKZF1 protein; hPBMC, 24 h, 50 nM): cannot degrade; degradation of GSPT1 protein (Western blot, FIG. 1) (GSPT1 protein; hPBMC, 24 h, 50 nM): cannot degrade

Further lines, the compound ahead of its results:

Row | SMILES | pIC50 (CCRF-CEM cells) | pIC50 (MDA-MB-231 cells) | pIC50 (Mino cells) | pIC50 (TMD8 cells) | pIC50 (SU-DHL-6 cells) | pIC50 (MM.1S cells) | pIC50 (Ramos cells) | pIC50 (MM.1R cells) | AUC(0-t) [1] [ng·h/mL] | pIC50 (SU-DHL-4 cells) | pIC50 (Kasumi-1 cells) | pIC50 (SW620 cells) | pIC50 [2] | residual substrate protein level, IKZF3 (IKZF3 protein) | residual substrate protein level, IKZF1 (IKZF1 protein) | residual substrate protein level, GSPT1 (GSPT1 protein) | further results
5 | O=C1CCC(N2Cc3cc(CN4CCN(Cc5ccccc5-c5ccc(Cl)cc5)CC4)ccc3C2=O)C(=O)N1 (centres unmarked) [GT-03355, 3-(5-((4-((4′-chloro-[1,1′-biphenyl]-2-yl)methyl)piperazin-1-yl)methyl)-1-oxoisoindolin-2-yl)piperidine-2,6-dione] | > 8.30 | > 8.30 | > 8.30 | > 8.30 | 7.30 to 8.00 | > 8.30 | 8.00 to 8.30 | > 8.30 | > 500 | 6.30 to 7.00 | > 8.30 | 8.00 to 8.30 | 6.11 | A (A represents a residual substrate protein level of <50%) | A (A represents a residual substrate protein level of <50%) | A (A represents a residual substrate protein level of <50%) | –
6 | O=C1CCC(N2Cc3cc(-c4ccc(CN5CCN(Cc6ccccc6-c6ccc(Cl)cc6)CC5)cc4)ccc3C2=O)C(=O)N1 (centres unmarked) [GT-03356, 3-(5-(4-((4-((4′-chloro-[1,1′-biphenyl]-2-yl)methyl)piperazin-1-yl)methyl)phenyl)-1-oxoisoindolin-2-yl)piperidine-2,6-dione] | 5.30 to 6.00 | – | – | – | 6.30 to 7.00 | – | 5.00 to 5.30 | – | – | – | – | – | – | – | – | – | –
7 | CC1(C)CCC(CN2CCN(Cc3ccc4c(c3F)CN(C3CCC(=O)NC3=O)C4=O)CC2)=C(c2ccc(Cl)cc2)C1 (centres unmarked) [GT-03468, 3-(5-((4-((4′-chloro-5,5-dimethyl-3,4,5,6-tetrahydro-[1,1′-biphenyl]-2-yl)methyl)piperazin-1-yl)methyl)-4-fluoro-1-oxoisoindolin-2-yl)piperidine-2,6-dione] | 7.30 to 8.00 | 7.30 to 8.00 | 6.30 to 7.00 | 6.30 to 7.00 | – | 7.30 to 8.00 | 6.30 to 7.00 | 7.30 to 8.00 | > 500 | 5.00 to 5.30 | 7.30 to 8.00 | 7.30 to 8.00 | 5.53 | A (A represents a residual substrate protein level of <50%) | A (A represents a residual substrate protein level of <50%) | A (A represents a residual substrate protein level of <50%) | –
